One assay deals with T1, recombinant human TYRO3 (Homo sapiens, UniProt Q06418).
T1 construct: purchased Invitrogen
T1 sequence (Q06418 41-890): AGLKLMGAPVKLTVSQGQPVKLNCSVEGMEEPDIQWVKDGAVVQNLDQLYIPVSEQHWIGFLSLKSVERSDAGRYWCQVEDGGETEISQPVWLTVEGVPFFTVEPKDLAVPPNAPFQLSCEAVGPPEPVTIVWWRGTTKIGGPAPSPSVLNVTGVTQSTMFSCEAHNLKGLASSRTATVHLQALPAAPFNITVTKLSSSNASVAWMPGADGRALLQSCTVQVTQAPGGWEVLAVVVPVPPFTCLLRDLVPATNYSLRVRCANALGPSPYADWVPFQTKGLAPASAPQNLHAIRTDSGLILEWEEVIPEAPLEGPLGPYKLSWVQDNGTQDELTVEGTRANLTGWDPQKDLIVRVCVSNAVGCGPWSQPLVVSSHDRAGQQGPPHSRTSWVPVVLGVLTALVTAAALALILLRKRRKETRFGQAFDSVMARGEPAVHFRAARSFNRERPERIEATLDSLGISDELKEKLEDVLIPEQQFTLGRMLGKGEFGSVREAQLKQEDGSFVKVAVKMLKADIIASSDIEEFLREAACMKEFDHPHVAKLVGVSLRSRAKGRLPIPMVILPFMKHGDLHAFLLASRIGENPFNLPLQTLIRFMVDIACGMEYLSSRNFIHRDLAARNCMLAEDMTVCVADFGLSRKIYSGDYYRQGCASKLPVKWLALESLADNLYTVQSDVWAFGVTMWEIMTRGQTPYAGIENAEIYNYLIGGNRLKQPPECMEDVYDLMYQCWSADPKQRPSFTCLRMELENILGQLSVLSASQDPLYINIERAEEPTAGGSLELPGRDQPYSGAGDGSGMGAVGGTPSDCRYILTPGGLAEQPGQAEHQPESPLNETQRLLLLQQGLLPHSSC
The experiment in a line: Biochemical potency, HTRF KinEASE-TK kinase assay. To be noted: 1 nM TYRO3, 700 μM ATP. The procedure: Measurement of Biochemical Compound Potency of Axl Inhibitors
Purified recombinant human AXL, TYRO3 and MER proteins were purchased from Invitrogen™. 10 nM AXL, 2 nM TYRO3 or MER were incubated with varying concentrations of compounds in 50 mM HEPES, pH 7.4, 10 mM MgCl2, 0.01% BSA, 1 mM DTT and 2% DMSO in a total volume of 20 μl in a 384-well microplate (Corning™ #3640) at RT for 1 h. The AXL, TYRO3 and MER enzymatic reaction was initiated by transferring 10 μl of enzyme and compound mixture into 10 μl of 1.6 μM TK Substrate-biotin (HTRF® KinEASE-TK kit, Cisbio) and 1400 μM ATP pre-incubated in 50 mM HEPES, pH 7.4, 10 mM MgCl2, 0.01% BSA, 1 mM DTT in a 384-well microplate (Corning™ #3640) at RT, giving the final reaction conditions: 5 nM AXL, 1 nM TYRO3 or MER, 800 nM TK Substrate-biotin and 700 μM ATP in 50 mM HEPES, pH 7.4, 10 mM MgCl2, 0.01% BSA, 1 mM DTT and 1% DMSO with varying concentrations of compounds. Following 2 h incubation at RT, the AXL, TYRO3 and MER enzymatic reaction was stopped by transfer of 10 μl of reaction into 10 μl of detection mix (400 nM Streptavidin-XL665, 200-fold dilution TK Antibody-Cryptate and detection buffer, HTRF® KinEASE-TK kit, Cisbio) in a white 384-well microplate (Perkin Elmer, OptiPlate 384). After 1 h incubation at RT, the plate was put into a plate reader (Evision) to read at 665/620 nm (acceptor/donor) for HTRF. The value of the DMSO blank (MIN inhibition=100% activity) was used as a negative control. The positive control was established by adding 5 μl of enzyme and DMSO mixture into 10 μl of detection mix followed by addition of 5 μl of TK Substrate-biotin and ATP mixture (MAX inhibition=0% activity). To calculate the percent activity, Equation 1 was used. Ratio665/620 is the value at a given compound concentration: […]

Another assay has as its target T2, Axl (Homo sapiens, UniProt P30530).
T2 sequence (P30530 26-894): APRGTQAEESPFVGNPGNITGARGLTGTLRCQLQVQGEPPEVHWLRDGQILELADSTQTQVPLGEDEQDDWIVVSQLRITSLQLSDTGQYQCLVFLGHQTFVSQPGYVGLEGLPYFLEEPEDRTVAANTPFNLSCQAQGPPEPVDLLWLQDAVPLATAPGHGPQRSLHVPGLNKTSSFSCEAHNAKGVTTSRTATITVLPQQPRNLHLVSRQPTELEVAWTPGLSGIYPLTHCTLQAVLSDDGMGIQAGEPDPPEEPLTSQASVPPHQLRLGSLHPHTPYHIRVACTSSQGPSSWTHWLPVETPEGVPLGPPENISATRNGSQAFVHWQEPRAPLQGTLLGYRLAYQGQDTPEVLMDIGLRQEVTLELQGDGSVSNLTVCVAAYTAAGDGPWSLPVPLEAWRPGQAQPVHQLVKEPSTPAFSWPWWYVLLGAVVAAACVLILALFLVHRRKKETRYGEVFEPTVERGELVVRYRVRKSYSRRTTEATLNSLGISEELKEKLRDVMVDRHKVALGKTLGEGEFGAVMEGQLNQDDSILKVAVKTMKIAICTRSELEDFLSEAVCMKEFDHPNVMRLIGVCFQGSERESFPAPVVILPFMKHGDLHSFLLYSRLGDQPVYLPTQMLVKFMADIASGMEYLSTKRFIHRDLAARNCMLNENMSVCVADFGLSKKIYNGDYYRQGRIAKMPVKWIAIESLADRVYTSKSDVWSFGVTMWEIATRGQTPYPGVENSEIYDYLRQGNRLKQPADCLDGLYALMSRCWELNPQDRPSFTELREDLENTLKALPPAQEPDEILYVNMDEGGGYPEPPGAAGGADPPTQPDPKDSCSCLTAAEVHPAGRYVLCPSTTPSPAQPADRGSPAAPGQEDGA
The experiment in a line: Biochemical potency, HTRF KinEASE-TK kinase assay. Set-up: purchased Invitrogen. Particulars: 5 nM AXL, 700 μM ATP. An outline of the steps:
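Steps: compound plus kinase, 1 h RT; add ATP (700 µM final) and biotin-TK substrate (800 nM final); run 2 h RT; stop into streptavidin-XL665/anti-phospho cryptate detection mix, 1 h; read 665/620. AXL at 5 nM, TYRO3 and MER at 1 nM.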

One may read the IC50 as the concentration at which inhibition is half-maximal. As to `Cc1cccnc1-c1ccc(-c2c[nH]c3ncc(-c4ccc5c(c4)CC[C@@H](N4CCCC4)CC5)cc23)cc1` [Example 173, 3-Methyl-2-(4-{5-[(7S)-7-(pyrrolidin-1-yl)-6,7,8,9-tetrahydro-5H-benzo[7]annulen-2-yl]-1H-pyrrolo[2,3-b]pyridin-3-yl}phenyl)pyridine], the IC50 at recombinant human TYRO3 and against Axl was below 100 nM each time.

As for `c1cnc(-c2ccc(-c3c[nH]c4ncc(-c5ccc6c(c5)CC[C@@H](N5C7COCC5C7)CC6)cc34)cc2)c(N2CCOCC2)c1` [Example 5, 6-[(7S)-2-(3-{4-[3-(Morpholin-4-yl)pyridin-2-yl]phenyl}-1H-pyrrolo[2,3-b]pyridin-5-yl)-6,7,8,9-tetrahydro-5H-benzo[7]annulen-7-yl]-3-oxa-6-azabicyclo[3.1.1]heptane], the concentration for half-maximal inhibition (IC50) on recombinant human TYRO3 and against Axl was below 100 nM in each case.

Consider `CN(C)C(=O)c1ccccc1-c1ccc(-c2c[nH]c3ncc(-c4ccc5c(c4)CC[C@@H](N4C6COCC4C6)CC5)cc23)cn1` [Example 170, N,N-Dimethyl-2-(5-{5-[(7S)-7-{3-oxa-6-azabicyclo[3.1.1]heptan-6-yl}-6,7,8,9-tetrahydro-5H-benzo[7]annulen-2-yl]-1H-pyrrolo[2,3-b]pyridin-3-yl}pyridin-2-yl)benzamide], for which the IC50 was 100 to 1000 nM on recombinant human TYRO3 and below 100 nM against Axl.

For the compound `O=C(c1cccnc1-c1ccc(-c2c[nH]c3ncc(-c4ccc5c(c4)CC[C@@H](N4C6COCC4C6)CC5)cc23)cc1)N1CCCC1` [Example 171, 6-[(7S)-2-(3-{4-[3-(Pyrrolidine-1-carbonyl)pyridin-2-yl]phenyl}-1H-pyrrolo[2,3-b]pyridin-5-yl)-6,7,8,9-tetrahydro-5H-benzo[7]annulen-7-yl]-3-oxa-6-azabicyclo[3.1.1]heptane], the IC50 at recombinant human TYRO3 is 100 to 1000 nM; against Axl, below 100 nM.

Turning to `Cn1nncc1-c1ccc(-c2n[nH]c3ncc(-c4ccc5c(c4)CC[C@@H](N4C6COCC4C6)CC5)cc23)cc1` [Example 13, 6-[(7S)-2-{3-[4-(1-Methyl-1H-1,2,3-triazol-5-yl)phenyl]-1H-pyrazolo[3,4-b]pyridin-5-yl}-6,7,8,9-tetrahydro-5H-benzo[7]annulen-7-yl]-3-oxa-6-azabicyclo[3.1.1]heptane], the 50% inhibitory concentration (IC50) at recombinant human TYRO3 is above 1000 nM; against Axl it was below 100 nM.

Regarding `Cc1cccnc1-c1ccc(-c2n[nH]c3ncc(-c4ccc5c(c4)CC[C@@H](N4C6COCC4C6)CC5)cc23)nc1` [Example 26, 3-Methyl-6′-{5-[(7S)-7-{3-oxa-6-azabicyclo[3.1.1]heptan-6-yl}-6,7,8,9-tetrahydro-5H-benzo[7]annulen-2-yl]-1H-pyrazolo[3,4-b]pyridin-3-yl}-2,3′-bipyridine], the results for the IC50 on recombinant human TYRO3 and on Axl were 100 to 1000 nM and below 100 nM, respectively.

For the compound `Cc1cccnc1-c1ccc(-c2n[nH]c3ncc(-c4ccc5c(c4)CC[C@@H](N4C[C@@H]6C[C@H]4CO6)CC5)cc23)cc1` [Example 130, (1S,4S)-5-[(7S)-2-{3-[4-(3-Methylpyridin-2-yl)phenyl]-1H-pyrazolo[3,4-b]pyridin-5-yl}-6,7,8,9-tetrahydro-5H-benzo[7]annulen-7-yl]-2-oxa-5-azabicyclo[2.2.1]heptane], the IC50 at recombinant human TYRO3 and on Axl was below 100 nM throughout.

With `Cc1cnc(-c2ccc(-c3n[nH]c4ncc(-c5ccc6c(c5)CC[C@@H](N5C7COCC5C7)CC6)cc34)cc2)c(C)c1` [Example 119, 6-[(7S)-2-{3-[4-(3,5-Dimethylpyridin-2-yl)phenyl]-1H-pyrazolo[3,4-b]pyridin-5-yl}-6,7,8,9-tetrahydro-5H-benzo[7]annulen-7-yl]-3-oxa-6-azabicyclo[3.1.1]heptane], the 50% inhibitory concentration (IC50) at recombinant human TYRO3 and against Axl was below 100 nM in each case.

For `C[C@@H]1COC(=O)N1c1cccnc1-c1ccc(-c2n[nH]c3ncc(-c4ccc5c(c4)CC[C@@H](N4C6COCC4C6)CC5)cc23)cc1` [Example 124, (4R)-4-Methyl-3-[2-(4-{5-[(7S)-7-{3-oxa-6-azabicyclo[3.1.1]heptan-6-yl}-6,7,8,9-tetrahydro-5H-benzo[7]annulen-2-yl]-1H-pyrazolo[3,4-b]pyridin-3-yl}phenyl)pyridin-3-yl]-1,3-oxazolidin-2-one], the IC50 at recombinant human TYRO3 and on Axl was below 100 nM in each case.

Take `COc1cccnc1-c1ccc(-c2c[nH]c3ncc(-c4ccc5c(c4)CC[C@@H](N4C6COCC4C6)CC5)cc23)cc1` [Example 164, 6-[(7S)-2-{3-[4-(3-Methoxypyridin-2-yl)phenyl]-1H-pyrrolo[2,3-b]pyridin-5-yl}-6,7,8,9-tetrahydro-5H-benzo[7]annulen-7-yl]-3-oxa-6-azabicyclo[3.1.1]heptane]: the IC50 at recombinant human TYRO3 and against Axl was below 100 nM in each case.

For `Cc1cccnc1-c1ccc(-c2c[nH]c3ncc(-c4ccc5c(c4)CC[C@@H](N4C6COCC4C6)CC5)cc23)nc1` [Example 96, 3-Methyl-6′-{5-[(7S)-7-{3-oxa-6-azabicyclo[3.1.1]heptan-6-yl}-6,7,8,9-tetrahydro-5H-benzo[7]annulen-2-yl]-1H-pyrrolo[2,3-b]pyridin-3-yl}-2,3′-bipyridine], the half-inhibitory concentration (IC50) on recombinant human TYRO3 and on Axl was below 100 nM each time.

Consider `CN(C)C(=O)c1cccc(-c2ccc(-c3n[nH]c4ncc(-c5ccc6c(c5)CC[C@@H](N5C7COCC5C7)CC6)cc34)cc2)n1` [Example 94, N,N-Dimethyl-6-(4-{5-[(7S)-7-{3-oxa-6-azabicyclo[3.1.1]heptan-6-yl}-6,7,8,9-tetrahydro-5H-benzo[7]annulen-2-yl]-2H-pyrazolo[3,4-b]pyridin-3-yl}phenyl)pyridine-2-carboxamide], for which the 50% inhibitory concentration (IC50) on recombinant human TYRO3 was above 1000 nM; on Axl it was below 100 nM.

These data come from US12195482B1 (Arcus Biosciences, Inc., priority 2022, dated 2025).
